Source: patent US20230069174A1, “NITROGEN-CONTAINING HETEROCYCLIC AUTOTAXIN INHIBITOR, AND COMPOSITION CONTAINING SAME AND USE THEREOF” (SICHUAN HAISCO PHARMACEUTICAL CO., LTD., priority 2019, published 2023)
Like-named read-outs stand apart in the source and are kept apart here.

Key:
ATX = target: T1, ATX (Homo sapiens, UniProt Q13822); experiment: ATX inhibitory activity: LPA production in pooled human plasma, LC-MS-MS; assay type: biochemical; conditions: 37° C. 2 h
T1 construct: ATX activity was detected by detecting LPA production in pooled human plasma; from tissue; host or cells: pooled human plasma (heparin-anticoagulated whole blood, centrifuged)
Protocol: Experimental subject: compounds to be tested.
ATX activity was detected by detecting LPA production in pooled human plasma. Whole blood anticoagulated with heparin was collected and centrifuged, and then plasma was collected. 5-μL gradient dilution of the compound to be tested or DMSO was added to 95-μL plasma, incubated at 37° C. for 2 h, then a stop solution (40 mM disodium hydrogen phosphate buffer, containing a buffer solution (containing 30 mM citric acid, pH=4)) was added. LPA in plasma was detected by LC-MS-MS before and after incubation.
LPA (18:2) and (20:4) LC-MS-MS analytical method
Using a 1.5 mL EP tube, 3.0 μL of each of the working solutions for standard curve and quality control was taken and added to 27.0 μL of water. After homogeneously mixing by vortex, 400 μL of internal standard solution was added. After homogeneously mixing by vortex, the mixture was centrifuged at 4° C. for 10 min. 180 μL of supernatant was taken and added into a 96-well plate, waiting for sample injection.
10 μL of the compound to be tested (10 mg/ml) was precisely pipetted into an EP tube, 990 μL of DMSO solution was added, and the mixture was vortexed to completely dissolve to obtain a solution (100 μg/mL).
Inhibition rate of ATX receptor activity was calculated in the following way: inhibition rate %=((LPAc−LPA0)−(LPAi−LPA0))/(LPAc−LPA0)*100%, wherein LPAc was the LPA content in plasma after DMSO was added and incubated for 2 h, LPA0 was the LPA content in plasma before DMSO was added for incubation, and LPAi was the LPA content in plasma after test compound was added and incubated for 2 h.

[1] = Pharmacokinetic experiment in mice (single dose iv and intragastric); assay type: in vivo; conditions: mouse, plasma, male C57 mice
Protocol: Experimental objective: In this experiment, a single dose of each test compound was administered to C57 mice intravenously and intragastrically, the concentrations of the compounds 35, 37 and 38 in plasma of the mice were measured, and the pharmacokinetic characteristics and bioavailability of each test compound in mice were evaluated.
Experimental animals: Male C57 mice, 20-25 g, 6-8 weeks old, 18 mice/compound. The experimental animals were purchased from CHENGDU DOSSY EXPERIMENTAL ANIMALS CO., LTD.
Experimental method: On the day of the experiment, 18 C57 mice were randomly grouped according to their body weight. The animals were fasted with water available for 12 to 14 hours one day before the administration of a test compound, and were fed 4 hours after the administration.
Before and after the administration, 0.08 ml of blood was taken from the orbit of the […] under isoflurane anesthesia, and placed in an EDTAK2 centrifuge tube. Centrifugation was carried out at 5000 rpm at 4° C. for 10 min and the plasma was collected.
Time points for plasma collection in G1 group: 0, 5, 15, 30 min, 1, 2, 4, 6, 8, and 24 h.
Time points for plasma collection in G2 group: 0, 15, 30 min, 1, 2, 4, 6, 8, and 24 h.
Before analysis and detection, all samples were stored at −80° C.
30 μL of each of plasma sample, standard curve and quality control sample was taken, and 200 μL of acetonitrile solution containing internal standard was added, and the mixture was homogeneously mixed by vortex, and then centrifuged at 12000 rpm for 10 min at 4° C. The supernatant was taken and added into a 96-well plate and analyzed by LC-MS/MS.
The main pharmacokinetic parameters were analyzed by non-compartmental model using WinNonlin 8.0 software.

[2] = LPA 18:2 readout, read-out: Inhibitory activity against ATX receptor, LPA 18:2 IC50
[3] = LPA 20:4 readout, read-out: Inhibitory activity against ATX receptor, LPA 20:4 IC50

Row | SMILES | IC50 (ATX; [2]) [nM] | IC50 (ATX; [3]) [nM] | further results
1 | C[C@@](F)(C(=O)N1CCc2[nH]nnc2C1)c1nnc(-c2cnc(NC3Cc4ccccc4C3)nc2)o1 (single isomer, unassigned) [Compound 38] | 5.53 | 5.88 | bioavailability ([1]; po 10 mg/kg vs iv 2.5 mg/kg, read-out: F (bioavailability)): 59.3%; AUC ([1]; iv 2.5 mg/kg): 1480 ng·h/mL; C0 ([1]; iv 2.5 mg/kg): 3330 ng/mL; half-life ([1]; iv 2.5 mg/kg): 33.1 min; AUC ([1]; po 10 mg/kg): 3500 ng·h/mL; Cmax ([1]; po 10 mg/kg): 3590 ng/mL; Tmax ([1]; po 10 mg/kg): 15 min; half-life ([1]; po 10 mg/kg): 48.3 min
2 | C#Cc1ccc2c(c1)C[C@@H](Nc1ncc(-c3nnc(CC(=O)N4CCc5[nH]nnc5C4)o3)cn1)C2 (single isomer, unassigned) [Compound 40] | 1.51 | 1.56 | –
3 | O=C(Cc1nnc(-c2cnc(N[C@H]3Cc4ccc(-c5ccoc5)cc4C3)nc2)o1)N1CCc2[nH]nnc2C1 (single isomer, unassigned) [Compound 42] | 2.86 | 2.69 | –
4 | O=C(Cn1cc(-c2cnc(NC3Cc4ccccc4C3)nc2)c(OC2CC2)n1)N1CCc2[nH]nnc2C1 [Compound 1, 2-(3-cyclopropoxy-4-(2-((2,3-dihydro-1H-inden-2-yl)amino)pyrimidin-5-yl)-1H-pyrazol-1-yl)-1-(1,4,6,7-tetrahydro-5H-[1,2,3]triazolo[4,5-c]pyridin-5-yl)ethan-1-one] | 8.53 | – | –
5 | N#Cc1nn(CC(=O)N2CCc3[nH]nnc3C2)cc1-c1cnc(NC2Cc3ccccc3C2)nc1 [Compound 2, 4-(2-((2,3-dihydro-1H-inden-2-yl)amino)pyrimidin-5-yl)-1-(2-oxo-2-(1,4,6,7-tetrahydro-5H-[1,2,3]triazolo[4,5-c]pyridin-5-yl)ethyl)-1H-pyrazole-3-carbonitrile] | 6.19 | 6.85 | –
6 | CNC(=O)c1nn(CC(=O)N2CCc3[nH]nnc3C2)cc1-c1cnc(NC2Cc3ccccc3C2)nc1 [Compound 3, 4-(2-((2,3-dihydro-1H-inden-2-yl)amino)pyrimidin-5-yl)-N-methyl-1-(2-oxo-2-(1,4,6,7-tetrahydro-5H-[1,2,3]triazolo[4,5-c]pyridin-5-yl)ethyl)-1H-pyrazole-3-carboxamide] | 5.68 | 5.65 | –
7 | O=C(N1CCc2[nH]nnc2C1)C1(c2nnc(-c3cnc(NC4Cc5ccccc5C4)nc3)o2)CC1 [Compound 4, (1-(5-(2-((2,3-dihydro-1H-inden-2-yl)amino)pyrimidin-5-yl)-1,3,4-oxadiazol-2-yl)cyclopropyl)(1,4,6,7-tetrahydro-5H-[1,2,3]triazolo[4,5-c]pyridin-5-yl)methanone] | 4.93 | 5.33 | –
8 | O=C(Cc1nnc(-c2cnc(NC3Cc4ccc(C5CC5)cc4C3)nc2)o1)N1CCc2[nH]nnc2C1 (stereo not drawn) [Compound 7, 2-(5-(2-((5-cyclopropyl-2,3-dihydro-1H-inden-2-yl)amino)pyrimidin-5-yl)-1,3,4-oxadiazol-2-yl)-1-(1,4,6,7-tetrahydro-5H-[1,2,3]triazolo[4,5-c]pyridin-5-yl)ethan-1-one] | 7.46 | 7.67 | –
9 | N#Cc1ccc2c(c1)CC(Nc1ncc(-c3nnc(CC(=O)N4CCc5[nH]nnc5C4)o3)cn1)C2 (stereo not drawn) [Compound 8, 2-((5-(5-(2-(6,7-dihydro-1H-[1,2,3]triazolo[4,5-c]pyridin-5(4H)-yl)-2-oxoethyl)-1,3,4-oxadiazol-2-yl)pyrimidin-2-yl)amino)-2,3-dihydro-1H-indene-5-carbonitrile] | 5.94 | 6.18 | –
10 | O=C(Cc1nnc(-c2cnc(NC3Cc4ccc(C(F)F)cc4C3)nc2)o1)N1CCc2[nH]nnc2C1 (stereo not drawn) [Compound 9, 2-(5-(2-((5-(difluoromethyl)-2,3-dihydro-1H-inden-2-yl)amino)pyrimidin-5-yl)-1,3,4-oxadiazol-2-yl)-1-(1,4,6,7-tetrahydro-5H-[1,2,3]triazolo[4,5-c]pyridin-5-yl)ethan-1-one] | 3.26 | 3.65 | –
11 | O=C(NC1(c2nnc(-c3cnc(NC4Cc5ccccc5C4)nc3)o2)CC1)N1CCc2[nH]nnc2C1 [Compound 14, N-(1-(5-(2-((2,3-dihydro-1H-inden-2-yl)amino)pyrimidin-5-yl)-1,3,4-oxadiazol-2-yl)cyclopropyl)-1,4,6,7-tetrahydro-5H-[1,2,3]triazolo[4,5-c]pyridine-5-carboxamide] | 5.97 | 6.56 | –
12 | O=C(N1CCc2[nH]nnc2C1)C1(c2nnc(-c3cnc(NC4Cc5ccccc5C4)nc3)o2)CCC1 [Compound 20, (1-(5-(2-((2,3-dihydro-1H-inden-2-yl)amino)pyrimidin-5-yl)-1,3,4-oxadiazol-2-yl)cyclobutyl)(1,4,6,7-tetrahydro-5H-[1,2,3]triazolo[4,5-c]pyridin-5-yl)methanone] | 3.65 | 3.76 | –
13 | N#Cc1nc(CC(=O)N2CCc3[nH]nnc3C2)oc1-c1cnc(NC2Cc3ccccc3C2)nc1 [Compound 22, 5-(2-((2,3-dihydro-1H-inden-2-yl)amino)pyrimidin-5-yl)-2-(2-oxo-2-(1,4,6,7-tetrahydro-5H-[1,2,3]triazolo[4,5-c]pyridin-5-yl)ethyl)oxazole-4-carbonitrile] | 4.97 | 6.84 | –
14 | O=C(Cc1nnc(-c2cnc(NC3Cc4cscc4C3)nc2)o1)N1CCc2[nH]nnc2C1 [Compound 26, 2-(5-(2-((5,6-dihydro-4H-cyclopenta[c]thiophen-5-yl)amino)pyrimidin-5-yl)-1,3,4-oxadiazol-2-yl)-1-(1,4,6,7-tetrahydro-5H-[1,2,3]triazolo[4,5-c]pyridin-5-yl)ethan-1-one] | 8.73 | 8.86 | –
15 | CC(F)(C(=O)N1CCc2[nH]nnc2C1)c1nnc(-c2cnc(NC3Cc4ccccc4C3)nc2)o1 (stereo not drawn) [Compound 27, 2-(5-(2-((2,3-dihydro-1H-inden-2-yl)amino)pyrimidin-5-yl)-1,3,4-oxadiazol-2-yl)-2-fluoro-1-(1,4,6,7-tetrahydro-5H-[1,2,3]triazolo[4,5-c]pyridin-5-yl)propan-1-one] | 6.26 | 7.08 | –
16 | O=C(Cc1nnc(-c2cnc(NC3Cc4ccc(-c5ccoc5)cc4C3)nc2)o1)N1CCc2[nH]nnc2C1 (stereo not drawn) [Compound 28, 2-(5-(2-((5-(furan-3-yl)-2,3-dihydro-1H-inden-2-yl)amino)pyrimidin-5-yl)-1,3,4-oxadiazol-2-yl)-1-(1,4,6,7-tetrahydro-5H-[1,2,3]triazolo[4,5-c]pyridin-5-yl)ethan-1-one] | 5.24 | 5.4 | –
17 | O=C(Cc1nnc(-c2cnc(NC3Cc4cc5c(cc4C3)OCO5)nc2)o1)N1CCc2nn[nH]c2C1 [Compound 29, 2-(5-(2-((6,7-dihydro-5H-indeno[5,6-d][1,3]dioxol-6-yl)amino)pyrimidin-5-yl)-1,3,4-oxadiazol-2-yl)-1-(3,4,6,7-tetrahydro-5H-[1,2,3]triazolo[4,5-c]pyridin-5-yl)ethan-1-one] | 2.75 | 3.27 | –
18 | O=C(Cc1nnc(-c2cnc(NC3Cc4cc5c(cc4C3)CC5)nc2)o1)N1CCc2[nH]nnc2C1 [Compound 30, 2-(5-(2-((2,4,5,6-tetrahydro-1H-cyclobuta[f]inden-5-yl)amino)pyrimidin-5-yl)-1,3,4-oxadiazol-2-yl)-1-(1,4,6,7-tetrahydro-5H-[1,2,3]triazolo[4,5-c]pyridin-5-yl)ethan-1-one] | 1.58 | 1.92 | –
19 | C#Cc1ccc2c(c1)CC(Nc1ncc(-c3nnc(CC(=O)N4CCc5[nH]nnc5C4)o3)cn1)C2 (stereo not drawn) [Compound 31, 2-(5-(2-((5-ethynyl-2,3-dihydro-1H-inden-2-yl)amino)pyrimidin-5-yl)-1,3,4-oxadiazol-2-yl)-1-(1,4,6,7-tetrahydro-5H-[1,2,3]triazolo[4,5-c]pyridin-5-yl)ethan-1-one] | 2.61 | 2.85 | –
